Target: POLRMT (Homo sapiens, UniProt O00411)
Assay: homogeneous TR-FRET assay of mitochondrial transcription (inhibition of POLRMT)
Assay type: biochemical
Settings: isoquinolinone compounds (Table 1)
Method in brief: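 Recombinant POLRMT (7.5 nM) with TFB2M, TFAM and linearized LSP plasmid template, 500 μM NTPs, pH 7.5 Mg buffer; 60 min at 37° C. Reaction stopped with EDTA/high-salt buffer, 407 bp RNA transcript detected by hybridized ATTO647/Europium-cryptate probe pair; TR-FRET 665/620 nm ratio taken as transcript yield.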

POLRMT, sequence (O00411 42-1230): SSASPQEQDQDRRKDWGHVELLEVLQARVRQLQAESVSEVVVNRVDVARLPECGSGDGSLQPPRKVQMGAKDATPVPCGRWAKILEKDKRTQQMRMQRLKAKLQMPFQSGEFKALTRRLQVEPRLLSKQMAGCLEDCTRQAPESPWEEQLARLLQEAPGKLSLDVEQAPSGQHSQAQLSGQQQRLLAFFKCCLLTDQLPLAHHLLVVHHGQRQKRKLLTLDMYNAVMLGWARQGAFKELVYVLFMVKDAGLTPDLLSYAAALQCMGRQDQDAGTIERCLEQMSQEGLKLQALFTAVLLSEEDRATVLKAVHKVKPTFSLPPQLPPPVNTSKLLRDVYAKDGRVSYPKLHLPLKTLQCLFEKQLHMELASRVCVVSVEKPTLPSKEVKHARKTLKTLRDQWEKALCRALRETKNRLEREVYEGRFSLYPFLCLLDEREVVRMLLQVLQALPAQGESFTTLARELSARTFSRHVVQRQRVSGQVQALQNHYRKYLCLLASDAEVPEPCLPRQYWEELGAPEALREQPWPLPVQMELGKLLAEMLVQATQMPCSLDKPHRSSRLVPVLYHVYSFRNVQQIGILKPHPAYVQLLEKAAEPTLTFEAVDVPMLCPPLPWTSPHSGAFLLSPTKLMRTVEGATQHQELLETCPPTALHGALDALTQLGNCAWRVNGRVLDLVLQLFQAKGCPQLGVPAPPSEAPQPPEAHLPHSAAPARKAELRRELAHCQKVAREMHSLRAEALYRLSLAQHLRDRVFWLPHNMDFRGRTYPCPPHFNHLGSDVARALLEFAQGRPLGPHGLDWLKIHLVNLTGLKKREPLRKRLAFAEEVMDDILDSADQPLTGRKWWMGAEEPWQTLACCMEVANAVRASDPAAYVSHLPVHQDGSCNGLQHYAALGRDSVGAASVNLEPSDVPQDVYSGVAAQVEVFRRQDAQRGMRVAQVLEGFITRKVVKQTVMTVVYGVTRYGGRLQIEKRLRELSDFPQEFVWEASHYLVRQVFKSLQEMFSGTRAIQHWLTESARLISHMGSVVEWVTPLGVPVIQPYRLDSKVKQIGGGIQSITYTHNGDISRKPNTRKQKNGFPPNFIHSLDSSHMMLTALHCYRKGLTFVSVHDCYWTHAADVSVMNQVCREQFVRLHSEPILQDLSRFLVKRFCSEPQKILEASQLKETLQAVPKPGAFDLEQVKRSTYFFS

Compound | IC50
Cc1ccccc1-c1c[nH]c(=O)c2cc(N(C)CC(N)=O)ccc12 [Example 66, 2-(methyl(1-oxo-4-(o-tolyl)-1,2-dihydroisoquinolin-7-yl)amino)acetamide] | 5000 nM
CC(=O)NCc1ccc2c(-c3ccccc3C)c[nH]c(=O)c2c1 [Example 39, N-((1-oxo-4-(o-tolyl)-1,2-dihydroisoquinolin-7-yl)methyl)acetamide] | > 100000 nM
COCC(Oc1ccc2c(-c3ccccc3C)c[nH]c(=O)c2c1)C(=O)O (stereo not shown) [Example 51, 3-methoxy-2-((1-oxo-4-(o-tolyl)-1,2-dihydroisoquinolin-7-yl)oxy)propanoic acid] | 6000 nM
Cc1ccccc1-c1c[nH]c(=O)c2cc(NCC(N)=O)ccc12 [Example 70, 2-((1-oxo-4-(o-tolyl)-1,2-dihydroisoquinolin-7-yl)amino)acetamide] | 8000 nM
Cc1ccccc1-c1c[nH]c(=O)c2cc(NC(C)C(=O)N3CCOCC3)ccc12 (stereo not shown) [Example 46] | 2000 nM
COCC(=O)Nc1ccc2c(-c3ccccc3C)c[nH]c(=O)c2c1 [Example 32, 2-methoxy-N-(1-oxo-4-(o-tolyl)-1,2-dihydroisoquinolin-7-yl)acetamide] | 22000 nM
CC(C#N)Oc1ccc2c(-c3ccc(F)cc3Cl)c[nH]c(=O)c2c1 (single isomer, unassigned) [Example 49, 2-((4-(2-chloro-4-fluorophenyl)-1-oxo-1,2-dihydroisoquinolin-7-yl)oxy)propanenitrile] | 5000 nM
COCCOc1ccc2c(-c3ccccc3C)c[nH]c(=O)c2c1 [Example 9, 7-(2-methoxyethoxy)-4-(o-tolyl)isoquinolin-1(2H)-one] | 3000 nM
Cc1ccccc1-c1c[nH]c(=O)c2cc(NC(=O)C3CCN(C)CC3)ccc12 [Example 43, 1-methyl-N-(1-oxo-4-(o-tolyl)-1,2-dihydroisoquinolin-7-yl)piperidine-4-carboxamide] | > 100000 nM
C[C@@H](Oc1ccc2c(-c3ccc(F)cc3Cl)c[nH]c(=O)c2c1)C(=O)N1CC2CC1CN2C (stereo partly drawn) [Example 127, 4-(2-chloro-4-fluorophenyl)-7-(((2R)-1-(5-methyl-2,5-diazabicyclo[2.2.1]heptan-2-yl)-1-oxopropan-2-yl)oxy)isoquinolin-1(2H)-one] | 2000 nM
COCC(Oc1ccc2c(-c3ccccc3C)c[nH]c(=O)c2c1)C(N)=O (single isomer, unassigned) [Example 53] | 13000 nM
Cc1ccccc1-c1c[nH]c(=O)c2cc(NC(C)C(N)=O)ccc12 (stereo not shown) [Example 67, 2-((1-oxo-4-(o-tolyl)-1,2-dihydroisoquinolin-7-yl)amino)propanamide] | 12000 nM
CC(=O)N1CC[C@H](Oc2ccc3c(-c4ccccc4C)c[nH]c(=O)c3c2)C1 [Example 17, (S)-7-((1-acetylpyrrolidin-3-yl)oxy)-4-(o-tolyl)isoquinolin-1(2H)-one] | 82000 nM
COCC(Oc1ccc2c(-c3ccccc3C)c[nH]c(=O)c2c1)C(=O)N(C)C (single isomer, unassigned) [Example 55, 3-methoxy-N,N-dimethyl-2-((1-oxo-4-(o-tolyl)-1,2-dihydroisoquinolin-7-yl)oxy)propenamide] | 2000 nM
C[C@H](Oc1ccc2c(-c3ccc(F)cc3Cl)c[nH]c(=O)c2c1)C(=O)N1CCC[C@H](C(=O)O)C1 [Example 59, (S)-1-((S)-2-((4-(2-chloro-4-fluorophenyl)-1-oxo-1,2-dihydroisoquinolin-7-yl)oxy)propanoyl)piperidine-3-carboxylic acid] | 25000 nM
C[C@@H](Oc1ccc2c(-c3ccc(F)cc3Cl)c[nH]c(=O)c2c1)C(=O)O [Example 90, (R)-2-((4-(2-chloro-4-fluorophenyl)-1-oxo-1,2-dihydroisoquinolin-7-yl)oxy)propanoic acid] | 1000 nM
CNC(=O)[C@@H](C)Oc1ccc2c(-c3ccccc3C)c[nH]c(=O)c2c1 [Example 20, (R)—N-methyl-2-((1-oxo-4-(o-tolyl)-1,2-dihydroisoquinolin-7-yl)oxy)propanamide] | 1000 nM

The next lines start with the values.

IC50 | Compound
1000 nM | Cc1sccc1-c1c[nH]c(=O)c2cc(OCC#N)ccc12 [Example 133, 2-((4-(2-methylthiophen-3-yl)-1-oxo-1,2-dihydroisoquinolin-7-yl)oxy)acetonitrile]
1000 nM | C[C@@H](Oc1ccc2c(-c3ccc(F)cc3Cl)c[nH]c(=O)c2c1)C(=O)N1CCO[C@@H](C(N)=O)C1 [Example 129, (R)-4-((R)-2-((4-(2-chloro-4-fluorophenyl)-1-oxo-1,2-dihydroisoquinolin-7-yl)oxy)propanoyl)morpholine-2-carboxamide]
1000 nM | COCC(C)Oc1ccc2c(-c3ccccc3C)c[nH]c(=O)c2c1 (single isomer, unassigned) [Example 26, 7-((1-methoxypropan-2-yl)oxy)-4-(o-tolyl)isoquinolin-1(2H)-one]
700 nM | COC[C@H]1COCCN1C(=O)[C@@H](C)Oc1ccc2c(-c3ccc(F)cc3Cl)c[nH]c(=O)c2c1 [Example 103, 4-(2-chloro-4-fluorophenyl)-7-(((R)-1-((S)-3-(methoxymethyl)morpholino)-1-oxopropan-2-yl)oxy)isoquinolin-1(2H)-one]
400 nM | C[C@@H](Oc1ccc2c(-c3ccc(F)cc3Cl)c[nH]c(=O)c2c1)C(=O)N1CCN(CC(F)(F)F)CC1 [Example 118, (R)-4-(2-chloro-4-fluorophenyl)-7-((1-oxo-1-(4-(2,2,2-trifluoroethyl)piperazin-1-yl)propan-2-yl)oxy)isoquinolin-1(2H)-one]
400 nM | CC[C@@H](Oc1ccc2c(-c3ccccc3C)c[nH]c(=O)c2c1)C(=O)O [Example 126, (R)-2-((1-oxo-4-(o-tolyl)-1,2-dihydroisoquinolin-7-yl)oxy)butanoic acid]
400 nM | Cc1ccccc1-c1c[nH]c(=O)c2cc(OC(C)C(N)=O)ccc12 (single isomer, unassigned) [Example 73]
400 nM | Cc1ccccc1-c1c[nH]c(=O)c2cc(OC(C)C)ccc12 [Example 4, 7-isopropoxy-4-(o-tolyl)isoquinolin-1(2H)-one]
400 nM | C[C@@H](Oc1ccc2c(-c3ccc(F)cc3Cl)c[nH]c(=O)c2c1)C(=O)N1CCO[C@H](C(N)=O)C1 [Example 132, (S)-4-((R)-2-((4-(2-chloro-4-fluorophenyl)-1-oxo-1,2-dihydroisoquinolin-7-yl)oxy)propanoyl)morpholine-2-carboxamide]
400 nM | Cc1ccccc1-c1c[nH]c(=O)c2cc(O[C@H](C)C(=O)O)ccc12 [Example 88, (R)-2-((1-oxo-4-(o-tolyl)-1,2-dihydroisoquinolin-7-yl)oxy)propanoic acid]
300 nM | Cc1ccccc1-c1c[nH]c(=O)c2cc(O[C@H](C)C(=O)N3CCCC(S(C)(=O)=O)C3)ccc12 (single isomer, unassigned) [Example 97]
300 nM | C[C@@H](Oc1ccc2c(-c3ccc(F)cc3Cl)c[nH]c(=O)c2c1)C(=O)N1CCOC[C@@H]1C(N)=O [Example 122, (R)-4-((R)-2-((4-(2-chloro-4-fluorophenyl)-1-oxo-1,2-dihydroisoquinolin-7-yl)oxy)propanoyl)morpholine-3-carboxamide]
200 nM | C[C@@H](Oc1ccc2c(-c3ccc(F)cc3Cl)c[nH]c(=O)c2c1)C(=O)N1CCC[C@H](C#N)C1 [Example 87, (S)-1-((R)-2-((4-(2-chloro-4-fluorophenyl)-1-oxo-1,2-dihydroisoquinolin-7-yl)oxy)propanoyl)piperidine-3-carbonitrile]
200 nM | C[C@@H](Oc1ccc2c(-c3ccc(F)cc3Cl)c[nH]c(=O)c2c1)C(=O)N1CCO[C@H](C(=O)O)C1 [Example 121, (S)-4-((R)-2-((4-(2-chloro-4-fluorophenyl)-1-oxo-1,2-dihydroisoquinolin-7-yl)oxy)propanoyl)morpholine-2-carboxylic acid]
200 nM | Cc1c(F)cccc1-c1c[nH]c(=O)c2cc(OCC#N)ccc12 [Example 135, 2-((4-(3-fluoro-2-methylphenyl)-1-oxo-1,2-dihydroisoquinolin-7-yl)oxy)acetonitrile]
80 nM | C[C@@H](Oc1ccc2c(-c3ccc(F)cc3Cl)c[nH]c(=O)c2c1)C(=O)N1CCCC(F)(F)C1 [Example 84, (R)-4-(2-chloro-4-fluorophenyl)-7-((1-(3,3-difluoropiperidin-1-yl)-1-oxopropan-2-yl)oxy)isoquinolin-1(2H)-one]
40 nM | Cc1ccccc1-c1c[nH]c(=O)c2cc(O[C@H](C)C(=O)N3CCC(F)(F)CC3)ccc12 [Example 80, (R)-7-((1-(4,4-difluoropiperidin-1-yl)-1-oxopropan-2-yl)oxy)-4-(o-tolyl)isoquinolin-1(2H)-one]
30 nM | Cc1ccccc1-c1c[nH]c(=O)c2cc(O[C@H](C)C(=O)N3CCCC(F)(F)C3)ccc12 [Example 81, (R)-7-((1-(3,3-difluoropiperidin-1-yl)-1-oxopropan-2-yl)oxy)-4-(o-tolyl)isoquinolin-1(2H)-one]

Same assay, conditions: quinolinone compounds (Table 2)

Compound | IC50
C[C@@H](Oc1ccc2c(-c3ccc(F)cc3Cl)cc(=O)[nH]c2c1)C(=O)N1CCCCC1 [Example Q5, (R)-4-(2-chloro-4-fluorophenyl)-7-((1-oxo-1-(piperidin-1-yl)propan-2-yl)oxy)quinolin-2(1H)-one] | 5000 nM
Cc1ccccc1-c1cc(=O)[nH]c2cc(OCC(C)C)ccc12 [Example Q12, 7-isobutoxy-4-(o-tolyl)quinolin-2(1H)-one] | 18000 nM
O=c1cc(-c2ccc(F)cc2Cl)c2ccc(O)cc2[nH]1 [Example Q2, 4-(2-chloro-4-fluorophenyl)-7-hydroxyquinolin-2(1H)-one] | > 100000 nM
C[C@@H](Oc1ccc2c(-c3ccc(F)cc3Cl)cc(=O)[nH]c2c1)C(=O)N(C)C [Example Q6, (R)-2-((4-(2-chloro-4-fluorophenyl)-2-oxo-1,2-dihydroquinolin-7-yl)oxy)-N,N-dimethylpropanamide] | 18000 nM
COc1ccc2c(-c3ccccc3)cc(=O)[nH]c2c1 [Example Q9, 7-methoxy-4-phenylquinolin-2(1H)-one] | > 100000 nM

Source: patent US20240391875A1, “ISOQUINOLINONES AND QUINOLINONES AS MODULATORS OF POLRMT” (Pretzel Therapeutics, Inc., priority 2021, published 2024)
